# According to PubChem BioAssay AID1919006 (Molecular Pharmacology Branch, DTP, NCI, 2023):
# System: 885512-296-R-J2-PDC complex spheroid growth, % test/control
# Test: Anticancer human tumor 885512-296-R-J2-PDC patient-derived breast carcinoma cell line growth inhibition [AhR]
# Conditions: for IC50: curve of first compound; for viability, T/C: stronger effect = lower value
# Outline: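 Agents were dosed in half-log steps down from roughly clinical Cmax, or from 10 microM where Cmax was unknown, alone and with AhR antagonists. Read-out: percent test/control growth of tumor spheroids containing HUVEC and MSC stromal cells.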
# [1] = second compound 0.1 µM, first compound 0.0316 µM
# [2] = second compound 0.1 µM, first compound 0.1 µM
# [3] = second compound 0.1 µM, first compound 0.316 µM
# [4] = second compound 0.1 µM, first compound 1 µM
# [5] = second compound 0.1 µM, first compound 3.16 µM
# [6] = second compound 0.1 µM, first compound 10 µM
# [7] = second compound 0.316 µM, first compound 0.0316 µM
# [8] = second compound 0.316 µM, first compound 0.1 µM
# [9] = second compound 0.316 µM, first compound 0.316 µM
# [10] = second compound 0.316 µM, first compound 1 µM
# [11] = second compound 0.316 µM, first compound 3.16 µM
# [12] = second compound 0.316 µM, first compound 10 µM
# [13] = second compound 1 µM, first compound 0.0316 µM
# [14] = second compound 1 µM, first compound 0.1 µM
# [15] = second compound 1 µM, first compound 0.316 µM
# [16] = second compound 1 µM, first compound 1 µM
# [17] = second compound 1 µM, first compound 3.16 µM
# [18] = second compound 1 µM, first compound 10 µM
# [19] = second compound 3.16 µM, first compound 0.0316 µM
# [20] = second compound 3.16 µM, first compound 0.1 µM
# [21] = second compound 3.16 µM, first compound 0.316 µM
# [22] = second compound 3.16 µM, first compound 1 µM
# [23] = second compound 3.16 µM, first compound 3.16 µM
# [24] = second compound 3.16 µM, first compound 10 µM
# [25] = second compound 10 µM, first compound 0.0316 µM
# [26] = second compound 10 µM, first compound 0.1 µM
# [27] = second compound 10 µM, first compound 0.316 µM
# [28] = second compound 10 µM, first compound 1 µM
# [29] = second compound 10 µM, first compound 3.16 µM
# [30] = second compound 10 µM, first compound 10 µM
# 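Also: spheroids exposed to compounds for seven days.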
compound,measurement,setting,value
CC(C)c1c(-c2ccccc2)nc2c(C#N)c[nH]n2c1=O + CC(CO)NC(=O)c1cc(-c2ccc(Cl)cc2)nn(-c2cnn(C)c2)c1=O,IC50,second compound 0.1 µM,> 10000 nM
same,IC50,second compound 0.316 µM,> 10000 nM
same,IC50,second compound 1 µM,> 10000 nM
same,IC50,second compound 3.16 µM,> 10000 nM
same,IC50,second compound 10 µM,> 10000 nM
same,"viability, T/C",[1],110%
same,"viability, T/C",[2],101%
same,"viability, T/C",[3],97.6%
same,"viability, T/C",[4],98%
same,"viability, T/C",[5],98.2%
same,"viability, T/C",[6],85.5%
same,"viability, T/C",[7],105%
same,"viability, T/C",[8],101%
same,"viability, T/C",[9],104%
same,"viability, T/C",[10],102%
same,"viability, T/C",[11],93.3%
same,"viability, T/C",[12],91.7%
same,"viability, T/C",[13],105%
same,"viability, T/C",[14],96.4%
same,"viability, T/C",[15],107%
same,"viability, T/C",[16],91.7%
same,"viability, T/C",[17],99.1%
same,"viability, T/C",[18],89.2%
same,"viability, T/C",[19],108%
same,"viability, T/C",[20],104%
same,"viability, T/C",[21],99.5%
same,"viability, T/C",[22],111%
same,"viability, T/C",[23],105%
same,"viability, T/C",[24],89.7%
same,"viability, T/C",[25],109%
same,"viability, T/C",[26],91.2%
same,"viability, T/C",[27],86.9%
same,"viability, T/C",[28],102%
same,"viability, T/C",[29],97.2%
same,"viability, T/C",[30],77%
CC1COCCN1c1cc(-c2ccnn2C)c2ccnc(-c3ccn[nH]3)c2n1 (stereo not given) + CC(CO)NC(=O)c1cc(-c2ccc(Cl)cc2)nn(-c2cnn(C)c2)c1=O,IC50,second compound 0.1 µM,43.1 nM
same,IC50,second compound 0.316 µM,34.1 nM
same,IC50,second compound 1 µM,35.1 nM
same,IC50,second compound 3.16 µM,29.1 nM
same,IC50,second compound 10 µM,19.6 nM
same,"viability, T/C","second compound 0.1 µM, first compound 0.00316 µM",112%
same,"viability, T/C","second compound 0.1 µM, first compound 0.01 µM",87.6%
same,"viability, T/C",[1],67.8%
same,"viability, T/C",[2],10.4%
same,"viability, T/C",[3],3.86%
same,"viability, T/C",[4],2.47%
same,"viability, T/C","second compound 0.316 µM, first compound 0.00316 µM",96.6%
same,"viability, T/C","second compound 0.316 µM, first compound 0.01 µM",84.4%
same,"viability, T/C",[7],54.2%
same,"viability, T/C",[8],10.6%
same,"viability, T/C",[9],3.26%
same,"viability, T/C",[10],2.5%
same,"viability, T/C","second compound 1 µM, first compound 0.00316 µM",93.4%
same,"viability, T/C","second compound 1 µM, first compound 0.01 µM",91.7%
same,"viability, T/C",[13],53.4%
same,"viability, T/C",[14],10.7%
same,"viability, T/C",[15],2.7%
same,"viability, T/C",[16],2.39%
same,"viability, T/C","second compound 3.16 µM, first compound 0.00316 µM",91.2%
same,"viability, T/C","second compound 3.16 µM, first compound 0.01 µM",87.7%
same,"viability, T/C",[19],47%
same,"viability, T/C",[20],6.94%
same,"viability, T/C",[21],2.32%
same,"viability, T/C",[22],2.05%
same,"viability, T/C","second compound 10 µM, first compound 0.00316 µM",90.5%
same,"viability, T/C","second compound 10 µM, first compound 0.01 µM",84.2%
same,"viability, T/C",[25],25.7%
same,"viability, T/C",[26],4.34%
same,"viability, T/C",[27],2.45%
same,"viability, T/C",[28],2.06%
COc1ccc([C@@H](O)c2cc(-c3ncnc4cc(N5CCOCC5)ccc34)c(F)cc2Cl)nn1 + CC(CO)NC(=O)c1cc(-c2ccc(Cl)cc2)nn(-c2cnn(C)c2)c1=O,IC50,second compound 0.1 µM,> 10000 nM
same,IC50,second compound 0.316 µM,9460 nM
same,IC50,second compound 1 µM,> 10000 nM
same,IC50,second compound 3.16 µM,> 10000 nM
same,IC50,second compound 10 µM,4760 nM
same,"viability, T/C",[1],85.7%
same,"viability, T/C",[2],97.2%
same,"viability, T/C",[3],91.2%
same,"viability, T/C",[4],90.7%
same,"viability, T/C",[5],73.2%
same,"viability, T/C",[6],50.2%
same,"viability, T/C",[7],94.1%
same,"viability, T/C",[8],92.1%
same,"viability, T/C",[9],82.8%
same,"viability, T/C",[10],86.3%
same,"viability, T/C",[11],63.6%
same,"viability, T/C",[12],49.5%
same,"viability, T/C",[13],103%
same,"viability, T/C",[14],112%
same,"viability, T/C",[15],95.6%
same,"viability, T/C",[16],91.2%
same,"viability, T/C",[17],78%
same,"viability, T/C",[18],51.4%
same,"viability, T/C",[19],89.6%
same,"viability, T/C",[20],92.1%
same,"viability, T/C",[21],91.5%
same,"viability, T/C",[22],74.2%
same,"viability, T/C",[23],68.6%
same,"viability, T/C",[24],51.3%
same,"viability, T/C",[25],88.1%
same,"viability, T/C",[26],83.6%
same,"viability, T/C",[27],83.2%
same,"viability, T/C",[28],72.1%
same,"viability, T/C",[29],56.6%
same,"viability, T/C",[30],38.1%
O=C(C=Cn1cnc(-c2cc(C(F)(F)F)cc(C(F)(F)F)c2)n1)NNc1cnccn1 + CC(CO)NC(=O)c1cc(-c2ccc(Cl)cc2)nn(-c2cnn(C)c2)c1=O,IC50,second compound 0.1 µM,62.9 nM
same,IC50,second compound 0.316 µM,67.2 nM
same,IC50,second compound 1 µM,71.8 nM
same,IC50,second compound 3.16 µM,65.6 nM
same,IC50,second compound 10 µM,66.3 nM
same,"viability, T/C","second compound 0.1 µM, first compound 0.00949 µM",91.7%
same,"viability, T/C","second compound 0.1 µM, first compound 0.03 µM",99.7%
same,"viability, T/C","second compound 0.1 µM, first compound 0.0949 µM",24.6%
same,"viability, T/C","second compound 0.1 µM, first compound 0.3 µM",3.85%
same,"viability, T/C","second compound 0.1 µM, first compound 0.949 µM",2.45%
same,"viability, T/C","second compound 0.1 µM, first compound 3 µM",0.96%
same,"viability, T/C","second compound 0.316 µM, first compound 0.00949 µM",101%
same,"viability, T/C","second compound 0.316 µM, first compound 0.03 µM",98.8%
same,"viability, T/C","second compound 0.316 µM, first compound 0.0949 µM",29.1%
same,"viability, T/C","second compound 0.316 µM, first compound 0.3 µM",3.67%
same,"viability, T/C","second compound 0.316 µM, first compound 0.949 µM",1.87%
same,"viability, T/C","second compound 0.316 µM, first compound 3 µM",0.84%
same,"viability, T/C","second compound 1 µM, first compound 0.00949 µM",94.2%
same,"viability, T/C","second compound 1 µM, first compound 0.03 µM",109%
same,"viability, T/C","second compound 1 µM, first compound 0.0949 µM",33.4%
same,"viability, T/C","second compound 1 µM, first compound 0.3 µM",5.46%
same,"viability, T/C","second compound 1 µM, first compound 0.949 µM",1.59%
same,"viability, T/C","second compound 1 µM, first compound 3 µM",0.91%
same,"viability, T/C","second compound 3.16 µM, first compound 0.00949 µM",92.2%
same,"viability, T/C","second compound 3.16 µM, first compound 0.03 µM",111%
same,"viability, T/C","second compound 3.16 µM, first compound 0.0949 µM",25.7%
same,"viability, T/C","second compound 3.16 µM, first compound 0.3 µM",6.14%
same,"viability, T/C","second compound 3.16 µM, first compound 0.949 µM",1.92%
same,"viability, T/C","second compound 3.16 µM, first compound 3 µM",0.85%
same,"viability, T/C","second compound 10 µM, first compound 0.00949 µM",114%
same,"viability, T/C","second compound 10 µM, first compound 0.03 µM",107%
same,"viability, T/C","second compound 10 µM, first compound 0.0949 µM",24.1%
same,"viability, T/C","second compound 10 µM, first compound 0.3 µM",4.61%
same,"viability, T/C","second compound 10 µM, first compound 0.949 µM",2%
same,"viability, T/C","second compound 10 µM, first compound 3 µM",0.87%
